Data on seven compounds can be found in US10730886B2, “Compound having effect of inhibiting platelet aggregation and salt thereof, and composition for preventing or treating thrombotic diseases, containing same” (SHIN POONG PHARMACEUTICAL CO., LTD., priority 2015, dated 2020).

SMILES strings stand for the structures. Like-named read-outs stand apart in the source and are kept apart here. Bounds are passed on as bounds.

For experiment [1], the system named is Human Platelet Rich Plasma (PRP). The experiment can be described thus: Shear stress-induced platelet aggregation inhibition in human platelet rich plasma (PRP), cone-plate viscometer. Type of experiment: cell-based. To be noted: for inhibition at 25 µM: Homo sapiens, Platelet. As to the method: 1-1. Measurement of Platelet Aggregation Inhibitory Effect Using Human Platelet Rich Plasma (PRP)
Blood was collected from the veins of healthy male volunteers who had not taken any medication for more than 2 weeks. All related studies were conducted under the approval of the Seoul National University Institutional Review Board (IRB No. 1305/001-016). During the whole process of study the use of glass containers or glass pipettes was avoided, and the experiments were performed at room temperature. To separate platelet rich plasma (PRP), the blood was collected with 3.2% sodium citrate as an anticoagulant. The whole blood was centrifuged at 150 g for 15 minutes to obtain the supernatant (PRP), and the residue was centrifuged at 2,000 g for 20 minutes to obtain platelet poor plasma (PPP). The number of platelets of the PRP thus obtained was counted with an optical microscope using a hemacytometer. PRP was diluted with PPP so as to include 3×10^8 platelets per 1 ml, and then used in the experiments. PRP was put on a cone-plate viscometer (RotoVisco 1, Thermo Fischer Scientific, USA), and shear stress was applied to the PRP at 37° C. for 3 minutes at a shear rate of 10,800 s^−1. In order to evaluate candidate substances, prior to the induction of platelet aggregation, 598.8 μl of PRP was treated with 1.2 μl of 25 μM candidate substance and incubated at 37° C. for 3 minutes using a thermomixer. After applying the shear stress, 20 μl of PRP was fixed in 280 μl of a suspension buffer containing 0.5% glutaraldehyde (134 mM NaCl, 2.9 mM KCl, 1.0 mM MgCl2.6H2O, 10.0 mM HEPES, 5.0 mM dextrose, 12.0 mM NaHCO3, 0.34 mM Na2HPO4, 0.3% BSA, pH 7.4). Then, the number of single platelets in the suspension was counted using a hemacytometer. The degree of inhibition by the candidate substance was calculated according to the following formula (1). The degree of inhibition was determined by the method described below. No shear stress-applied group served as a control, and only shear stress-applied group served as positive control. Degree of inhibition (%)=[(1−A/B)×100]/[(1−A/C)×100] Formula 1
A: Number of single platelets in the shear stress-applied sample after treatment with candidate substance
B: Number of single platelets in the control group with no shear stress applied
C: Number of single platelets in the positive control group with only shear stress applied

Experiment [2] relates to Human Washed Platelets (WP). The experiment can be described thus: Shear stress-induced platelet aggregation inhibition in human washed platelets (WP). Type of experiment: cell-based. To be noted: for inhibited shear stress-induced platelet aggregation in WP: 10, 25, 50 μM; for inhibition at 10 µM / inhibition at 25 µM / inhibition at 50 µM: Platelet, human WP, read-out: Degree of inhibition (%, Mean ± SEM). On the procedure: 1-2. Measurement of Platelet Aggregation Inhibitory Effect Using Human Washed Platelets (WP)
To separate human washed platelets (WP), blood was collected from the veins of healthy males using acid-citrate-dextrose (ACD) as an anticoagulant. At the time of blood collection, platelet activation was inhibited by treatment with 1 μM of prostaglandin E1 (PGE1). The collected blood was centrifuged at 150 g for 15 minutes to obtain PRP from the supernatant, which was centrifuged at 500 g for 10 minutes to obtain platelets. The platelets were suspended in and washed with a washing buffer (134 mM NaCl, 2.9 mM KCl, 1.0 mM MgCl2.6H2O, 10.0 mM HEPES, 5.0 mM dextrose, 12.0 mM NaHCO3, 0.34 mM Na2HPO4, 10% ACD, 0.3% bovine serum albumin, 1 μM PGE1, pH 7.4), and then re-centrifuged at 400 g for 10 minutes. The platelets thus obtained were suspended in the suspension buffer. The number of platelets in WP were counted using a hemacytometer. The platelets were diluted with the suspension buffer so as to include 3×10^8 platelets per 1 ml, and CaCl2 was added to give a final concentration of 2 mM and then used in the experiments. vWF was added to WP to give a final concentration of 10 μg/ml. WP was put on a cone-plate viscometer, and shear stress was applied to the WP at 37° C. for 3 minutes at a shear rate of 10,800 s^−1. In order to evaluate efficacy of candidate substances, prior to the induction of platelet aggregation, WP was treated with 10, 25, and 50 μM of candidate substances and incubated at 37° C. for 3 minutes using a thermomixer. After applying the shear stress, 20 μl of WP was fixed in 280 μl of the suspension buffer containing 0.5% glutaraldehyde. Then, the number of single platelets in the suspension was counted using a hemacytometer. The degree of inhibition by the candidate substance was calculated according to formula (1). No shear stress-applied group served as control, and only shear stress-applied group served as a positive control.

The test system of another experiment is plasma. The experiment can be described thus: Plasma coagulation time, Activated Partial Thromboplastin Time (aPTT). It is filed as biochemical. To be noted: plasma treated 3 minutes. On the procedure: In order to separate plasma, blood was collected with 3.2% sodium citrate as an anticoagulant. Whole blood was centrifuged at 2000 g for 20 minutes to obtain plasma. After treating the plasma with the test substances for 3 minutes, plasma coagulation time was measured. For plasma coagulation time, Activated Partial Thromboplastin Time (aPTT) and Prothrombin Time (PT) were measured using BBL® Fibrometer (Becton Dickinson, Cockeysville, Md.). For measurement of aPTT, the plasma was treated with aPTT reagents in fibrometer cup and reacted at 37° C. for 3 min. After the reaction, CaCl2 was added and blood coagulation time was measured immediately. For the measurement of PT, PT reagent was added to warmed plasma, and blood coagulation time was measured immediately. DTI, known to prolong plasma coagulation time, was used as a control.

The mark [3] stands for this setting: 0.05 h, human PRP, 25 μM, shear rate 10,800 s^-1, 3 min, read-out: Degree of inhibition (%, Mean ± SEM).
[4] abbreviates: Table 1 summary bins, concentration and matrix not given, read-out: Inhibitory effect of shear stress-induced platelet aggregation.
Setting [5] is: human PRP, 25 μM, shear rate 10,800 s^-1, 3 min.

With `O=C(c1ccc(O)c(O)c1)N1CCc2sccc2C1` [Example 1, (6,7-Dihydrothieno[3,2-c]pyridin-5(4H)-yl)(3,4-dihydroxyphenyl)methanone], the inhibition at 25 µM in experiment [1] (setting [3]) is 20 to 30%; in experiment [1] (setting [4]), 20 to 30%; in experiment [2] it was 23 ± 1.2%. The “Degree of inhibition (%, Mean ± SEM)” value in experiment [1] (setting [5]) amounted to 23 ± 2%. Besides, the “inhibited shear stress-induced platelet aggregation in WP” value in experiment [2] was “in a dose-dependent manner”. Besides, the inhibition at 10 µM in experiment [2] amounted to 4 ± 3.5%. Also, in experiment [2], the inhibition at 50 µM stood at 27 ± 1.7%. In addition, the “plasma coagulation time - aPTT, Time” value was determined as 23.8 ± 1.9 s with plasma (25 μM), 24.8 ± 2.0 s in the experiment on plasma (100 μM) and 26.7 ± 0.8 s with plasma (250 μM).

As for `COc1cc(C(=O)N2CCc3sccc3C2)ccc1O` [Example 12, (6,7-Dihydrothieno[3,2-c]pyridin-5(4H)-yl)(4-hydroxy-3-methoxyphenyl)methanone], the inhibition at 25 µM in experiment [1] (setting [3]) is 20 to 30%; in experiment [1] (setting [4]), 20 to 30%; in experiment [2], 30 ± 0.9%. In experiment [1] (setting [5]), the “Degree of inhibition (%, Mean ± SEM)” value was found to be 25 ± 6%. For the same compound, in experiment [2], the “inhibited shear stress-induced platelet aggregation in WP” value is listed as “in a dose-dependent manner”. Further, the inhibition at 10 µM in experiment [2] is 10 ± 2.1%. In experiment [2], the inhibition at 50 µM stood at 33 ± 2.1%. In addition, the results for the “plasma coagulation time - aPTT, Time” value with plasma (25 μM), in the experiment with plasma (100 μM) and with plasma (250 μM) were 24.3 ± 0.1 s, 26.7 ± 1.0 s and 27.2 ± 2.0 s, respectively.

On to `CCc1occc(=O)c1OC(=O)c1ccc(O)c(OC)c1` [Example 13, 2-Ethyl-4-oxo-4H-pyran-3-yl 4-hydroxy-3-methoxybenzoate], for which the inhibition at 25 µM is 20 to 30% in experiment [1] (setting [3]), 20 to 30% in experiment [1] (setting [4]) and 29 ± 4.1% in experiment [2]. Further, in experiment [1] (setting [5]), the “Degree of inhibition (%, Mean ± SEM)” value was found to be 26 ± 6%. Further, the “inhibited shear stress-induced platelet aggregation in WP” value in experiment [2] is reported as “in a dose-dependent manner”. In addition, in experiment [2], the inhibition at 10 µM came to 12 ± 3.8%. Besides, the inhibition at 50 µM in experiment [2] amounted to 34 ± 2.7%. The “plasma coagulation time - aPTT, Time” value with plasma (25 μM) was 24.7 ± 1.0 s; in the experiment on plasma (100 μM), 26.6 ± 1.8 s; in the experiment with plasma (250 μM) it was 27.5 ± 1.7 s.

In the case of `COc1cc(C(=O)Oc2c(C)occc2=O)ccc1O` [Example 14, 2-Methyl-4-oxo-4H-pyran-3-yl 4-hydroxy-3-methoxybenzoate], the inhibition at 25 µM in experiment [1] (setting [3]) is at least 30%; in experiment [1] (setting [4]), at least 30%; in experiment [2], 27 ± 2.3%. Moreover, the “inhibited shear stress-induced platelet aggregation in WP” value in experiment [2] is listed as “in a dose-dependent manner”. The inhibition at 10 µM in experiment [2] was determined as 8 ± 1.5%. The inhibition at 50 µM in experiment [2] is 39 ± 0.6%. For the same compound, the “plasma coagulation time - aPTT, Time” value in the experiment on plasma (25 μM) turned out to be 27.0 ± 0.4 s; in the experiment with plasma (100 μM) it was 26.7 ± 0.2 s; in the experiment with plasma (250 μM), 26.3 ± 1.7 s.

`COc1ccc(NC(=O)c2ccc(O)c(OC)c2)c([N+](=O)[O-])c1` [Example 15, 4-Hydroxy-3-methoxy-N-(4-methoxy-2-nitrophenyl)benzamide]: the inhibition at 25 µM in experiment [1] (setting [3]) was 20 to 30%; in experiment [1] (setting [4]), 20 to 30%; in experiment [2], 26 ± 4%. The “Degree of inhibition (%, Mean ± SEM)” value in experiment [1] (setting [5]) was determined as 24 ± 8%. The “inhibited shear stress-induced platelet aggregation in WP” value in experiment [2] was “in a dose-dependent manner”. In experiment [2], the inhibition at 10 µM was found to be 14 ± 2.5%. Besides, the inhibition at 50 µM in experiment [2] came out at 36 ± 3.2%. Further, the “plasma coagulation time - aPTT, Time” value in the experiment on plasma (25 μM) amounted to 26.3 ± 2.3 s; in the experiment on plasma (100 μM) it was 26.6 ± 1.0 s; in the experiment with plasma (250 μM) it was 29.3 ± 0.5 s.

For `O=C(c1cc(O)ccc1O)N1CCc2sccc2C1` [Example 20, (6,7-Dihydrothieno[3,2-c]pyridin-5(4H)-yl)(2,5-dihydroxyphenyl)methanone], the figures for the inhibition at 25 µM in experiment [1] (setting [3]), in experiment [1] (setting [4]) and in experiment [2] were at least 30%, at least 30% and 42 ± 4.2%, respectively. For the same compound, the “inhibited shear stress-induced platelet aggregation in WP” value in experiment [2] is “in a dose-dependent manner”. The inhibition at 10 µM in experiment [2] stood at 18 ± 1.5%. In experiment [2], the inhibition at 50 µM was 46 ± 2.1%. The entries for the “plasma coagulation time - aPTT, Time” value with plasma (25 μM), with plasma (100 μM) and with plasma (250 μM) were 24.9 ± 1.0 s, 25.3 ± 0.6 s and 25.8 ± 0.9 s, respectively.

Consider `O=C(c1cc(O)ccc1O)N1CCC(c2noc3ccc(F)cc23)CC1` [Example 23, (2,5-Dihydroxyphenyl)(4-(5-fluorobenzo[d]isoxazol-3-yl)piperidin-1-yl)methanone], for which the inhibition at 25 µM in experiment [1] (setting [3]) and in experiment [1] (setting [4]) was 20 to 30% throughout. Besides, the “Degree of inhibition (%, Mean ± SEM)” value in experiment [1] (setting [5]) was found to be 28 ± 3%. For the same compound, the “plasma coagulation time - aPTT, Time” value came to 26.2 ± 0.2 s with plasma (25 μM), 29.5 ± 1.2 s in the experiment on plasma (100 μM) and 26.1 ± 0.2 s in the experiment with plasma (250 μM).
